Data: patent US10168342B2, “Lipid probes and uses thereof” (THE SCRIPPS RESEARCH INSTITUTE, priority 2015, dated 2019)
Read-outs that look alike come from different tables or passages of the source.

How the values were obtained:
[1] = biological target: AEA-DA lipid probe targets in Neuro2a cells (Mus musculus, UniProt Q9Z0V8)
[2] = biological target: T1, AEA-DA lipid probe targets in Neuro2a cells (Mus musculus, UniProt Q5SW19)
T1 sequence (Q5SW19 1-1315): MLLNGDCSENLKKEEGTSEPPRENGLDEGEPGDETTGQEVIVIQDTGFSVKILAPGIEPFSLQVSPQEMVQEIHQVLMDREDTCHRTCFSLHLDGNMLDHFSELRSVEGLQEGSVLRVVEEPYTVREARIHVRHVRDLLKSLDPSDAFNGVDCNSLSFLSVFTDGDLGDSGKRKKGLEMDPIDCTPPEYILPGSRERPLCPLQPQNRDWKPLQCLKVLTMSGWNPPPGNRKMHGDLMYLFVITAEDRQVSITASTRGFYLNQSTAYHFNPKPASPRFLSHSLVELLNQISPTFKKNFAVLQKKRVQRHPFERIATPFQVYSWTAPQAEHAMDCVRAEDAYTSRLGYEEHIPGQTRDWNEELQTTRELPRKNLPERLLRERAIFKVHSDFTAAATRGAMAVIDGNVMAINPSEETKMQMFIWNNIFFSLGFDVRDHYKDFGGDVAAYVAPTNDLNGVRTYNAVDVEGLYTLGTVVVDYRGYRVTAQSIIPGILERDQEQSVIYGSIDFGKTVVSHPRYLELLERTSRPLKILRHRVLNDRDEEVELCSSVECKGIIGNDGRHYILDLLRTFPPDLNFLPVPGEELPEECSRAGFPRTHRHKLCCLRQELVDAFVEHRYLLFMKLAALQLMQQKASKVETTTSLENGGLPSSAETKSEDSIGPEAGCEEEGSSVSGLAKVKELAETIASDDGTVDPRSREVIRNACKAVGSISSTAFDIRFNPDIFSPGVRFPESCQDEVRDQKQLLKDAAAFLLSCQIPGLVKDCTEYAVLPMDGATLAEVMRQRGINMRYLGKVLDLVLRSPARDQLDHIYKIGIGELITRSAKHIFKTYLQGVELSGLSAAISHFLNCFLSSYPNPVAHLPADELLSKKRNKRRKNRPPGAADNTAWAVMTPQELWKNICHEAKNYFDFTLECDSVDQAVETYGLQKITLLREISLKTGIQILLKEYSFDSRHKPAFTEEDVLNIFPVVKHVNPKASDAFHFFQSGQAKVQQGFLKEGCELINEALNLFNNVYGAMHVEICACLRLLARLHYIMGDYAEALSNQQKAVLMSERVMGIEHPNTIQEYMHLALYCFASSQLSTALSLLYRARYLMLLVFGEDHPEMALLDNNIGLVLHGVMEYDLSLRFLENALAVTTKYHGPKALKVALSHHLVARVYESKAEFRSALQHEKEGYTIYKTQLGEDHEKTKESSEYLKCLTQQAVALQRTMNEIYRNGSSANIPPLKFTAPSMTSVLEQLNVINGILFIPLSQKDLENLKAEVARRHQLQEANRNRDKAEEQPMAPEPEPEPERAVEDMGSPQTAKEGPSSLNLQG

[3] = biological target: T2, AEA-DA lipid probe targets in Neuro2a cells (Mus musculus, UniProt O88455)
T2 sequence (O88455 1-471): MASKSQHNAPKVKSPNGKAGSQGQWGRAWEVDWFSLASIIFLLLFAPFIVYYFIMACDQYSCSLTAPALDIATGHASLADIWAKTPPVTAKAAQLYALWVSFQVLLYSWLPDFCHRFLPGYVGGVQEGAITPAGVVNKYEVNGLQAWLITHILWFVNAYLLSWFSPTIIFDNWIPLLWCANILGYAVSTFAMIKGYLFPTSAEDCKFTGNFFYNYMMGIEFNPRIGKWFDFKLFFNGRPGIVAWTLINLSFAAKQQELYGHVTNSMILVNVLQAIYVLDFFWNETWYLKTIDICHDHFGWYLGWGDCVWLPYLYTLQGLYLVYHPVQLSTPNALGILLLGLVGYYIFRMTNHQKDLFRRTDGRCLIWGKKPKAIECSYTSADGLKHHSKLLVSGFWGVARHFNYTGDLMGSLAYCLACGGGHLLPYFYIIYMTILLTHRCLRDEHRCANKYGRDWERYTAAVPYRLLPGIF

[4] = biological target: T3, AEA-DA lipid probe targets in Neuro2a cells (Mus musculus, UniProt Q791V5)
T3 sequence (Q791V5 1-303): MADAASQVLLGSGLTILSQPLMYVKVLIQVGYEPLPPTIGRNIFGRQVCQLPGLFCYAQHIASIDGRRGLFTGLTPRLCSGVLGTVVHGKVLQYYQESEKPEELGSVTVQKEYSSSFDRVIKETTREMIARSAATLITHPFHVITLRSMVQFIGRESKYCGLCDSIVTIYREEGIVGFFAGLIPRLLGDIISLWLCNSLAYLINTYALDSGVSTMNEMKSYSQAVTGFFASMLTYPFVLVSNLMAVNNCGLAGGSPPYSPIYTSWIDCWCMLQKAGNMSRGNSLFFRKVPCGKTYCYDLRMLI

[5] = biological target: T4, AEA-DA lipid probe targets in Neuro2a cells (Mus musculus, UniProt Q8BJ03); conditions: protein Cox15, Neuro2a cells
T4 sequence (Q8BJ03 1-413): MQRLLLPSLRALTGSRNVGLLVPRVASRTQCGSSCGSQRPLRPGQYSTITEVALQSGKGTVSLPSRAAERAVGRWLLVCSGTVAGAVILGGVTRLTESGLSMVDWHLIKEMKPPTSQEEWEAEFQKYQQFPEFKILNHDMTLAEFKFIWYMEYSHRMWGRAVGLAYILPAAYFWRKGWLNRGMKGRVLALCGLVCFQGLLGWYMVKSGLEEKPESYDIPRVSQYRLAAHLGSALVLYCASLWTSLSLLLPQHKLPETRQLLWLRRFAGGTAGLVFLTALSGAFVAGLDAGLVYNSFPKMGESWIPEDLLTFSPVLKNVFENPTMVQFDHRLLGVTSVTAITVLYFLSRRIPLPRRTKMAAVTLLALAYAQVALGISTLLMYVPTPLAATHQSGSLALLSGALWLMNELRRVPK

Chain of AEA-DA lipid probe targets in Neuro2a cells (Mus musculus, UniProt Q9Z0V8) (Q9Z0V8 whole entry): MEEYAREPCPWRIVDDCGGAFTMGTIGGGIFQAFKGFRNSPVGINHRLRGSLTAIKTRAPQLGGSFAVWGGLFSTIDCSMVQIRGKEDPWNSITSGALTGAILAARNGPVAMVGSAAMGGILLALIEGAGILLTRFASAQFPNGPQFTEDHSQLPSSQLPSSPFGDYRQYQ

SMILES	SILAC ratio, Timm17a ([1]; competitor 25 μM)	SILAC ratio Kiaa0664 ([2]; competitor 25 μM)	SILAC ratio Dhcr7 ([3]; competitor 25 μM)	SILAC ratio Mtch2 ([4]; competitor 25 μM)	SILAC ratio (AEA-DA competition) ([5]; competitor 25 μM)	also measured
C=CCN(C)CCCCCCOc1ccc(C(=O)c2ccc(Br)cc2)c(F)c1 [Ro 48-8071, reference compound]	2.7	1.0	0.8	0.9	0.8	
CN1CCN(C(=O)c2[nH]c3ccc([N+](=O)[O-])cc3c2-c2ccccc2)CC1 [MJN228, (4-Methylpiperazin-1-yl)(5-nitro-3-phenyl-1H-indol-2-yl)methanone]	1.4	2.2	1.2	1.3	1.0	SILAC ratio, Timm17a ([1]; competitor 10 μM): 1.1; SILAC ratio, Timm17a ([1]; competitor 50 μM): 1.4; SILAC ratio, Timm17a ([1]; competitor 100 μM): 2.7; SILAC ratio Kiaa0664 ([2]; competitor 10 μM): 1.5; SILAC ratio Kiaa0664 ([2]; competitor 50 μM): 1.0; SILAC ratio Kiaa0664 ([2]; competitor 100 μM): 1.9; SILAC ratio Dhcr7 ([3]; competitor 10 μM): 1.1; SILAC ratio Dhcr7 ([3]; competitor 50 μM): 1.5; SILAC ratio Dhcr7 ([3]; competitor 100 μM): 1.7; SILAC ratio Mtch2 ([4]; competitor 10 μM): 1.2; SILAC ratio Mtch2 ([4]; competitor 50 μM): 1.1; SILAC ratio Mtch2 ([4]; competitor 100 μM): 1.4; SILAC ratio (AEA-DA competition) ([5]; competitor 10 μM): 0.8; SILAC ratio (AEA-DA competition) ([5]; competitor 50 μM): 0.7; SILAC ratio (AEA-DA competition) ([5]; competitor 100 μM): 0.6
CCCCC/C=C\C/C=C\C/C=C\C/C=C\CCCC(=O)NCCO [AEA, anandamide, reference compound]						SILAC ratio, Timm17a ([1]; competitor 200 μM): 1.5; SILAC ratio Dhcr7 ([3]; competitor 200 μM): 1.5; SILAC ratio Mtch2 ([4]; competitor 200 μM): 1.5; SILAC ratio (AEA-DA competition) ([5]; competitor 200 μM): 1.0
CN1CCN(C(=O)c2c(-c3ccccc3)c3cc([N+](=O)[O-])ccc3n2C)CC1 [KML110, (1-Methyl-5-nitro-3-phenyl-1H-indol-2-yl)(4-methylpiperazin-1-yl)methanone]	1.5	2.1	1.2	1.3	1.1	
O=C(/C=C/c1cccnc1)NCCCCC1CCN(C(=O)c2ccccc2)CC1 [FK-866, reference compound]	1.1	1.2	0.9	1.1	0.9	
